Values after ≈ are worked out from the molar mass of the structure shown.
test system: Candida albicans; assay: Antifungal activity Candida albicans CMCC(F) 98001 assessed as inhibition of fungal growth incubated for 24 hrs by broth micro dilution method; type: functional

SMILES	MIC [µg/mL]
CCCCC[C@@H](O)[C@H]1C(=O)O[C@H](C)[C@@H](O)/C=C/C=C/C=C/C=C/C=C(\C)[C@@H](O)C[C@H](O)C[C@H](O)C[C@H](O)C[C@H](O)C[C@H](O)C[C@@H]1O [FILIPIN]	12.5 (≈ 19.1 µM)
C\C1=C/C=C/C=C/C=C/C=C/[C@H](O)[C@@H](C)OC(=O)C[C@@H](O)C[C@@H](O)C[C@@H](O)C[C@@H](O)C[C@@H](O)C[C@@H](O)C[C@@H]1O	> 12.5
CC(C)CC[C@H]1C(=O)O[C@H](C)[C@@H](O)/C=C/C=C/C=C/C=C/C=C/[C@@H](O)C[C@H](O)C[C@H](O)C[C@H](O)C[C@H](O)C[C@H](O)C[C@@H]1O	> 12.5
CCCCCC[C@@H]1CC[C@@H](O)C[C@@H](O)C[C@@H](O)C[C@@H](O)C[C@@H](O)C[C@@H](O)C[C@H](O)/C(C)=C/C=C/C=C/C=C/C=C/[C@H](O)[C@@H](C)OC1=O	> 12.5
CCCC[C@H]1C(=O)O[C@H](C)[C@@H](O)/C=C/C=C/C=C/C=C/C=C(\C)[C@@H](O)C[C@H](O)C[C@H](O)C[C@H](O)C[C@H](O)C[C@H](O)C[C@@H]1O	6.25 (≈ 10.2 µM)
C\C1=C/C=C/C=C/C=C/C=C/[C@H](O)[C@@H](C)OC(=O)[C@H](CCCC(C)C)[C@@H](O)C[C@@H](O)C[C@@H](O)C[C@@H](O)C[C@@H](O)C[C@@H](O)C[C@@H]1O	1.56 (≈ 2.44 µM)
C[C@@H]1[C@H](O)[C@@H](C)/C=C/C=C/C=C/C=C/C=C/C=C/C=C/[C@H](O[C@@H]2O[C@H](C)[C@@H](O)[C@H](N)[C@@H]2O)C[C@@H]2O[C@](O)(C[C@@H](O)C[C@@H](O)[C@H](O)CC[C@@H](O)C[C@@H](O)CC(=O)O[C@H]1C)C[C@H](O)[C@H]2C(=O)O [AMPHOTERICIN B]	0.2 (≈ 0.216 µM)
CCCCCC[C@H]1C(=O)O[C@H](C)[C@@H](O)/C=C/C=C/C=C/C=C/C=C(\C)[C@@H](O)C[C@H](O)C[C@H](O)C[C@H](O)C[C@H](O)C[C@H](O)C[C@@H]1O	1.56 (≈ 2.44 µM)
CCCCC[C@H]1C(=O)O[C@H](C)[C@@H](O)/C=C/C=C/C=C/C=C/C=C(\C)[C@@H](O)C[C@H](O)C[C@H](O)C[C@H](O)C[C@H](O)C[C@H](O)C[C@@H]1O	3.13 (≈ 5.01 µM)
C[C@@H]1C/C=C/C=C/C=C/C=C/C=C/[C@@H](O)C[C@H](O)C[C@H](O)C[C@H](O)C[C@H](O)C[C@H](O)C[C@H](O)CC(=O)O1	> 12.5
C\C1=C/C=C/C=C/C=C/C=C/[C@H](O)[C@@H](C)OC(=O)[C@H](CCC(C)C)[C@@H](O)C[C@@H](O)C[C@@H](O)C[C@@H](O)C[C@@H](O)C[C@@H](O)C[C@@H]1O	3.13 (≈ 5.01 µM)
C\C1=C/C=C/C=C/C=C/C=C/C[C@@H](C)OC(=O)C[C@@H](O)C[C@@H](O)C[C@@H](O)C[C@@H](O)C[C@@H](O)C[C@@H](O)C[C@@H]1O	> 12.5
C\C1=C/C=C/C=C/C=C/C=C/C[C@@H](C)OC(=O)C[C@@H](O)C[C@@H](O)C[C@@H](O)C[C@@H](O)C[C@@H](O)C[C@@H]1O	> 12.5

Reference: ChEMBL document CHEMBL5143582, “Genome-Guided Discovery of Antifungal Filipins from a Deep-Sea-Derived Streptomyces antibioticus” (2022)
